According to US10442845B2, “Interferon analogs” (BiOrion Technologies B.V., priority 2009, dated 2019):
Bridge positions count the residues as written; N and C are the ends. Ends that are not written are not given here.

Columns and labels:
mouse NIH3T3 fibroblasts = assay: Anti-fibrotic effects in mouse NIH3T3 fibroblasts (α-SMA staining); assay type: cell-based; conditions: mimetic IFNγ 1 μg/ml, 48 hrs
Protocol: Briefly, 3T3 fibroblasts were seeded in 24 well plates at the density of 6×10^4 cells/well, After 24 hrs, cells were starved in 0.5% FBS containing medium for overnight. Thereafter, cells were incubated in starvation medium with different compounds (PDGF 50 ng/ml, TGFβ 10 ng/ml, mimetic IFNγ 1 μg/ml, 50 ng/ml PDGF+1 μg/ml mimetic IFNγ and 10 ng/ml TGFβ+1 μg/ml mimetic IFNγ). After 48 hrs of incubation, cells were washed, fixed with ethanol:acetone (1:1) and stained for α-SMA (marker of activated fibroblasts).

PDGFß-receptor = assay: Binding of FITC-labeled PPB or BiPPB to cultured or freshly isolated primary cells; parameters: species or system rat; conditions: for binding (fluorescence microscopy): FITC-coupled, 10 μg/ml, 2 h, room temperature, rat hepatic stellate cells and other cell types tested
Protocol: The binding of BiPPB was performed in primary freshly isolated rat hepatic stellate cells. Cells were seeded in the 8-well glass plates (Lab-Tek, Nunc, Naperville, Ill.) at 30,000 cells/well in the culture medium. After overnight incubation at 37° C./5% CO2, cells were washed with PBS and subsequently incubated with FITC-labeled PPB (monocyclic) or BiPPB (bicyclic: 10 μg/ml) at room temperature. To block the binding, anti-PDGF-βR IgG was added to the cells 1 h before FITC coupled PPB or BiPPB. After 2 h, cells were washed 3 to 4 times with cold PBS and fixed with 4% paraformaldehyde. The nuclei were counterstained with DAPI and mounted in citifluor (anti-fade reagent) and visualized under fluorescent microscope.
Similar binding experiments were performed in primary freshly isolated human myofibroblasts, mouse 3T3 fibroblasts and human hepatic stellate cells (LX2). For human Hepatic stellate cells, the sequence of BiPPB was as follows: […]

[1] = system: Human Hepatocytes (HepG2); assay: ICAM1 expression in human hepatocytes (HepG2); assay type: cell-based; conditions: 1 ug/ml, 24 hrs, 18srRNA housekeeping control
Protocol: Human Hepatocytes (HepG2) were plated in 12 well plates (1×10^5 cells/well). The cells were grown overnight in 5%/37° C./CO2 incubator. […] After 24 hrs of incubation, cells were lysed, RNA was isolated and reverse transcribed. The cDNA was used for the analysis of Inter-Cellular Adhesion Molecule 1 (ICAM1) expression, which is known to be induced in response to IFNγ. 18srRNA was used a housekeeping control.

[2] = system: acute CCL4-induced liver injury mouse model; assay: Blood count analysis (side effects) in acute CCl4-induced liver injury mouse model; assay type: in vivo; conditions: 50,000 U/mice at day 2 and 3; p<0.0025
Protocol: At day 1, the animals were given a single intra-peritoneal dose (1 ml/kg) of carbon tetrachloride (CCl4) in olive oil or olive oil (controls n=6). After 24 hrs of CCl4 injection, at day 2 and 3, animals were treated either with PBS (n=6), 50,000 U/mice of IFNγ (n=6), 50,000 U/mice of mimetic IFNγ (n=5), 50,000 U/mice of IFNγ-BiPPB (n=6), 50,000 U/mice of Mimetic IFNγ-BiPPB (n=6).

[3] = system: established advanced liver fibrosis mouse model; assay: Established advanced liver fibrosis mouse model (8 weeks CCl4), liver section staining; assay type: in vivo
Protocol: Male balb/c mice (20-22 g) were treated with olive oil or increasing doses of CCl4 (week 1: 0.5 ml/kg; week 2: 0.8 ml/kg and week 3-8: 1 ml/kg prepared in olive oil) twice weekly by intra-peritoneal injections for 8 weeks. In week 7 and 8, mice were treated intravenously with PBS, mimeticIFNγ-PEG or MimeticIFNγ-PEG-BiPPB (5 μg/mice, thrice per week). All mice were sacrificed at week 8; blood and liver samples were collected for subsequent measurements. The liver sections were stained for Collagen I and desmin, CD68, 33D1 and MHC class II.

[4] = system: liver fibrosis models induced with CCl4 in mice; assay: 4 days (acute) and 8 weeks (chronic) CCl4 liver fibrosis models in mice; assay type: in vivo, mouse
Protocol: In vivo, the targeted conjugate was examined in 4 days (acute) and 8 weeks (chronic) liver fibrosis models induced with CCl4 in mice. Several fibrotic parameters and infiltration of inflammatory cells were assessed in the livers using immunohistochemistry and gene expression analysis.

[5] = 5 μg/mice i.v. thrice per week, week 7 and 8, vs untreated CCl4-mice

AKFEVNNPQVQRQAFNELIRVVHQLLPESSLRKRKRSR (listed as Mus musculus) [Recombinant mimetic IFNγ]
anti-fibrotic effects (α-Smooth muscle actin staining) (mouse NIH3T3 fibroblasts): anti-fibrotic effects

C(1)S R N L I D C(1)G G G D G G C(2)S R N L I D C(2) (CSRNLIDCGGGDGGCSRNLIDC; disulfide 1-8, 15-22; also: FITC label) [BiPPB, Bicyclic peptide against the PDGF-beta-receptor; KGSGSGG linker variant for human hepatic stellate cells]
binding (fluorescence microscopy) (PDGFß-receptor): specifically binds
binding (fluorescence microscopy) (PDGFß-receptor; listed as FITC-coupled BiPPB): significant binding
species specificity of binding (PDGFß-receptor; Myo-fibroblast-like cells of rat, mouse and human): species non-specific
binding after blocking with PDGF receptor antibody (PDGFß-receptor; anti-PDGF-βR IgG added 1 h before): almost completely blocked

FEVNNPQVQRQAFNELIRVVHQLLPESSLRKRKRSR [mouse truncated IFNγ, signaling moiety of murine IFNγ (mimIFNγ), without targeting domain]
ICAM1 expression [1]: neither mouse truncated IFNγ nor Lac-HSA induced ICAM1 expression
ICAM1 expression ([1]; listed as mouse (truncated) INFγ): ineffective

human IFNγ: human interferon gamma, positive control in human hepatocytes
ICAM1 expression [1]: upregulated ICAM1 expression

B1: INFγ: full length mouse Interferon gamma, SEQ ID NO: 54 (protein, listed as Mus musculus)
chain: MNATHCILALQLFLMAVSGCYCHGTVIESLESLNNYFNSSGIDVEEKSLFLDIWRNWQKDGDMKILQSQIISFYLRLFEVLKDNQAISNNISVIESHLITTFFSNSKAKKDAFMSIAKFEVNNPQVQRQAFNELIRVVHQLLPESSLRKRKRSRC
reduction in platelet count (PLT) [2]: reduction in platelet count
collagen I staining (liver sections) [3, 5]: only a small reduction
desmin staining (liver sections) [3, 5]: only a small reduction
MHCII expression in livers ([3]; chronic CCl4 model): increased MHCII expression
infiltration of inflammatory cells (CD68+ macrophages, neutrophils, 33D1+ dendritic cells) in livers ([3]; chronic CCl4 model): induced infiltration of inflammatory cells
fibrotic parameters ([4]; both acute and chronic liver fibrosis models): only a moderate reduction
MHCII expression ([4]; data not shown): increased MHCII expression
infiltration of inflammatory cells (CD68+ macrophages, neutrophils, 33D1+ dendritic cells) / inflammatory response ([4]; data not shown): induced infiltration of inflammatory cells
